Experiments:
PARP1 = target: T1, PARP1 (Homo sapiens, UniProt P09874); assay: PARP1-DNA trapping, fluorescence polarization (FP); format: biochemical
T1 construct: purchased BPS 80501

A549 PARP1-KO cell lines = assay: Cellular PARylation inhibition, high-content imaging, PARP1-KO; format: cell-based
PARP11 = target: T2, PARP11 (Homo sapiens, UniProt Q9NR21); assay: Inhibition of PARP11 enzyme activity (chemiluminescent assay kit); format: biochemical
T2 construct: purchased BPS 80511
T2 sequence (Q9NR21 1-338): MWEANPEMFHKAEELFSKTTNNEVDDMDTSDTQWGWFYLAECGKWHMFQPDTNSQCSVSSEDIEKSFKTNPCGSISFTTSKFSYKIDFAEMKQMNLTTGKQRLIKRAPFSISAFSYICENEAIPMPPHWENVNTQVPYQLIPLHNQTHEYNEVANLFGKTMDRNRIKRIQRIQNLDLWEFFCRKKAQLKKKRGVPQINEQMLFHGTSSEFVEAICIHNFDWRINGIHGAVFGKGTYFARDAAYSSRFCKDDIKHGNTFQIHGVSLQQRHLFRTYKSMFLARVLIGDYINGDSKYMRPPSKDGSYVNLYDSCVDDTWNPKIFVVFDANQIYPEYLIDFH

T1 sequence (P09874 whole entry): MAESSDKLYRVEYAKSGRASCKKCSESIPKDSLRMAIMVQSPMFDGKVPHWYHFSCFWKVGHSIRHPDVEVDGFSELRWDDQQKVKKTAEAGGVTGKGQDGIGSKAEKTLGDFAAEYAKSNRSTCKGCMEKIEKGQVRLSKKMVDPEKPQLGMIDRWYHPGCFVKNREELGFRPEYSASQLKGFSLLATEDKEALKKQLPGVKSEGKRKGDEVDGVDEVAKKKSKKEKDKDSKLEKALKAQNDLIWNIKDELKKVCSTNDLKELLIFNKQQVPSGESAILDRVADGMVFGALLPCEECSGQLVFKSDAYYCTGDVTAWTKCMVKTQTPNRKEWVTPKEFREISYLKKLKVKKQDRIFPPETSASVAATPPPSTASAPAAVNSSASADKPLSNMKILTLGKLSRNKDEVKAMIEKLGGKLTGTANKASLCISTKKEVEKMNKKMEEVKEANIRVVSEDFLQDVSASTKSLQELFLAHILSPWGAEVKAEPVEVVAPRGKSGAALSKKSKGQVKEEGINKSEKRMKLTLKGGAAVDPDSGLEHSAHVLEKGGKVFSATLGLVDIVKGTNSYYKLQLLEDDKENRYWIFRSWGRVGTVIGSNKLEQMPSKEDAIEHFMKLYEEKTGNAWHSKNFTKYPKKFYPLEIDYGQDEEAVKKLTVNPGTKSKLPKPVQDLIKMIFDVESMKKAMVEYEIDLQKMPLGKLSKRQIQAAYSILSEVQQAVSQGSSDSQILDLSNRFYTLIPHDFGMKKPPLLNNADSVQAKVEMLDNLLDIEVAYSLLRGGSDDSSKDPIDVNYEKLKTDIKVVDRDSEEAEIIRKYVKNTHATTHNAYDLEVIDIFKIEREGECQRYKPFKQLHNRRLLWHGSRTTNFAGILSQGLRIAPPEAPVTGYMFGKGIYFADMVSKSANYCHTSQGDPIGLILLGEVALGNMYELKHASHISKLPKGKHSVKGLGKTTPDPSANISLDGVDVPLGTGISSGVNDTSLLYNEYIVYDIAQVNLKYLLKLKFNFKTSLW

[2H]C([2H])([2H])NC(=O)c1ccc(N2CCN(Cc3cnc4c(N)c(CC)c(=O)[nH]c4c3)CC2)c(F)n1 [Example 4, 5-(4-((8-Amino-7-ethyl-6-oxo-5,6-dihydro-1,5-naphthyridin-3-yl)methyl)piperazin-1-yl)-6-fluoro-N-(methyl-d3)picolinamide]
capability to induce PARP1-DNA trapping higher than that of Olaparib (PARP1; 2-hour time point, relative to Olaparib): 48 fold | PARP1-DNA trapping activity stronger than that of AZD5305 (PARP1; 54-hour time point, relative to AZD5305): 14 fold | time over which PARP1-DNA trapping activity could be maintained (PARP1; FP, PARP1): more than 54 hours | Bottom (PARP1; PARP1, 0.25 hour): -8.7 | EC50 (PARP1; PARP1, 0.25 hour): 3.11 nM | Hillslope (PARP1; PARP1, 0.25 hour): 2.8 | Top (PARP1; PARP1, 0.25 hour): 108.7 | Bottom (PARP1; PARP1, 0.5 hour): -6.3 | EC50 (PARP1; PARP1, 0.5 hour): 2.26 nM | Hillslope (PARP1; PARP1, 0.5 hour): 2.9 | Top (PARP1; PARP1, 0.5 hour): 105.6 | Bottom (PARP1; PARP1, 1 hour): -4.2 | EC50 (PARP1; PARP1, 1 hour): 2.58 nM | Hillslope (PARP1; PARP1, 1 hour): 3.1 | Top (PARP1; PARP1, 1 hour): 109.1 | Bottom (PARP1; PARP1, 2 hour): -0.8 | EC50 (PARP1; PARP1, 2 hour): 2.86 nM | Hillslope (PARP1; PARP1, 2 hour): 3.0 | Top (PARP1; PARP1, 2 hour): 105.3 | Bottom (PARP1; PARP1, 4 hour): -5.6 | EC50 (PARP1; PARP1, 4 hour): 2.99 nM | Hillslope (PARP1; PARP1, 4 hour): 2.4 | Top (PARP1; PARP1, 4 hour): 106.8 | Bottom (PARP1; PARP1, 8 hour): -6.8 | EC50 (PARP1; PARP1, 8 hour): 3.51 nM | Hillslope (PARP1; PARP1, 8 hour): 2.6 | Top (PARP1; PARP1, 8 hour): 107.2 | Bottom (PARP1; PARP1, 24 hour): -4.4 | EC50 (PARP1; PARP1, 24 hour): 3.97 nM | Hillslope (PARP1; PARP1, 24 hour): 1.5 | Top (PARP1; PARP1, 24 hour): 79.2 | Bottom (PARP1; PARP1, 30 hour): -8.8 | EC50 (PARP1; PARP1, 30 hour): 5.46 nM | Hillslope (PARP1; PARP1, 30 hour): 1.2 | Top (PARP1; PARP1, 30 hour): 79.1 | Bottom (PARP1; PARP1, 48 hour): -5.6 | EC50 (PARP1; PARP1, 48 hour): 4.58 nM | Hillslope (PARP1; PARP1, 48 hour): 2.0 | Top (PARP1; PARP1, 48 hour): 51.0 | Bottom (PARP1; PARP1, 54 hour): -12.8 | EC50 (PARP1; PARP1, 54 hour): 9.54 nM | Hillslope (PARP1; PARP1, 54 hour): 0.8 | Top (PARP1; PARP1, 54 hour): 55.9 | inhibition on the enzyme activity at the highest concentration (A549 PARP1-KO cell lines; A549 PARP1-KO cell lines, 40 µM): no detectable inhibition | IC50 (A549 PARP1-KO cell lines; Homo sapiens, A549, PARylation at the cellular level): > 40000 nM | IC50 (PARP11; enzyme activity): 422 nM | PARP11 multiple vs PARP1 (PARP11; ratio relative to the PARP1 enzyme activity): 880

— EP4620956A1, “PARP1 INHIBITORS” (Zhejiang Yangli Pharmaceutical Technology Co., Ltd., priority 2022, dated 2024)
